Source: paper PMC12655579, “Cocrystallization of Ezetimibe with Organic Acids: Stoichiometric Optimization for Improved Solubility and Bioavailability” (Pharmaceutics, 2025)

Experiments:
[1] = In vitro dissolution (USP apparatus II, paddle); format: physicochemical; settings: 0.45% w/v SLS in 0.05 M acetate buffer pH 4.5, 37 °C
Method: The samples were mixed in a 5 mL tube with 2 mL of the solvent at a concentration of 1 mg/mL using a multi-mixer (SLRM-3, Seoulin Biosciences, Pangyo, Republic of Korea) for 48 h at 25 °C. The mixtures were then centrifuged at 13,000 rpm for 10 min (Eppendorf 5425R, Hamburg, Germany) and manually filtered using a 0.45 μm polytetrafluoroethylene (PTFE-H) syringe filter. The absorbance of the filtered samples at 233 nm was measured using a UV-VIS spectrophotometer. Similarly, dissolution was assessed using the USP dissolution apparatus II (paddle) (Varian 705 DS, Cary, NC, USA) at 50 rpm in 500 mL of 0.45% w/v SLS in 0.05 M acetate buffer (pH 4.5) at 37 ± 0.5 °C. The cocrystal samples (equivalent to 10 mg ezetimibe) were weighed and added into the dissolution vessel (n = 3). Aliquots were collected at predetermined time points: 5 min, 10 min, 15 min, 30 min, 45 min, 60 min, 90 min, and 120 min. The displaced volume was replenished with fresh buffer after each sampling. The collected samples were filtered through a 0.45 µm RC syringe filter and subjected to UV-VIS spectrophotometer.

[2] = In vivo pharmacokinetics after single oral gavage; settings: rat, male Sprague Dawley rats, fasted, plasma, table prints dose 10 mg/kg for all groups (methods: CRYS101 10 mg/kg, CRYS102-104 30 mg/kg)
Method: The stock standard solution was prepared by dissolving ezetimibe at 0.5 mg/mL in 40% MeOH. The absorbance of the standards was measured at 233 nm using UV-VIS spectrophotometer (Optizen pop, Mecasys®, Seoul, Republic of Korea). The bioanalysis was performed using validated LC-MS/MS methods with MRM detection (details in Supplementary Materials). The method was developed using an Agilent 1290 Infinity II BioLC system coupled with an Agilent 6495D Triple-Quadrupole mass spectrometer, employing electrospray ionization (ESI). Chromatographic separation was achieved on a Kintex C18 column (2.6 μm, 100 × 3 mm) maintained at 30 °C, using an isocratic mobile phase of water-acetonitrile (20:80 v/v) at 0.25 mL/min flow rate. The run time was optimized to 5 min with a 2 μL injection volume. Mass spectrometric detection utilized multiple reaction monitoring (MRM) in negative polarity mode for ezetimibe ([M − H]^− m/z 408.1 → 271.1) and positive mode for the internal standard itraconazole ([M + H]^+ m/z 705.2 → 391.6). Detailed description is included in the Supplementary Materials.
In vivo pharmacokinetic profile of ezetimibe cocrystal formulations was assessed in male Sprague Dawley rats (n = 4 per group, 7–8-week-old, mean weight 271.1 g). The SD rats were obtained from G-Bio (Gwangju, Republic of Korea). They were maintained under a 12 h light/dark cycle and provided with free access to food and water. The animal experimental protocol was approved by the Institutional Animal Care and Use Committee (IACUC) of Mokpo National University (Mokpo, Republic of Korea; approval no. MNU-IACUC-2025-015).
The rats were fasted overnight before oral administration, and four formulation groups received single oral doses through gavage: Group 1 (CRYS101) at 10 mg/kg and Groups 2–4 (CRYS102-104) at 30 mg/kg. Blood samples (200 μL) were collected from the femoral artery at predetermined time points after the administration. The collected samples were centrifuged at 16,000× g for 5 min at 4 °C, and the plasma was stored at −70 °C until analysis. The plasma samples analyzed using a validated UPLC-MS/MS method with 1 ng/mL lower quantification limit.

In vitro release at 120 min [1]: 45% | AUC(0-inf) ([2]; SD not determined): 41.8 ng·h/mL | AUC(0-t) ([2]; n = 4/group, mean ± SD): 11 ± 8.63 ng·h/mL | Cmax ([2]; n = 4/group, mean ± SD): 6.73 ± 4.29 ng/mL | Tmax ([2]; n = 4/group, mean ± SD): 1.33 ± 0.76 h
SMILES: O=C1[C@H](CC[C@H](O)c2ccc(F)cc2)[C@@H](c2ccc(O)cc2)N1c1ccc(F)cc1 [Ezetimibe]
